Structures can show the parent of a compound that is named as a salt.
Tested on: patients hospitalized for acute heart failure (AHF)
Assay: Echocardiographic parameters (tissue Doppler echocardiography), phase II trial of 24 h istaroxime infusion
Format: in vivo, human
Parameters: E/e′ change from baseline to 24 h: dose or concentration left out as unconfirmed
Conditions: for A wave mean change from baseline / CI mean change from baseline / E wave mean change from baseline / E/A ratio mean change from baseline / E/e′ ratio mean change from baseline / EDV Index mean change from baseline / EDV mean change from baseline / ESV Index mean change from baseline / ESV mean change from baseline / IVC diameter mean change from baseline / LAA mean change from baseline / LAV mean change from baseline / LAVI mean change from baseline / LVEF mean change from baseline / PASP mean change from baseline / SVI mean change from baseline / S′ mean change from baseline / TAPSE mean change from baseline / e′ mean change from baseline: 1.0 μg/Kg/min; for E/e′ change from baseline to 24 h (primary endpoint): 1.0 μg/kg/min (cohort 2), mITT, hydrochloride
Text: The measurement of one or more cardiac parameters disclosed herein can be measured by Echocardiography which may be performed on subjects according to international standards (see, for example, Lang R M et a I. J Am Soc Echocardiogr 2005; 18(12): 1440-63; Nagueh S F et al. Eur J Echocardiogr 2009; 10(2): 165-93; Evangelista A et a I. Eur J Echocardiogr 2008; 9(4):438-48).
In some embodiments, cardiac parameters can be measured as follows: • 1. Cardiac dimension measures: • a. Left ventricle end diastolic diameter (EDD): measured with M-mode echocardiography at the level of mitral valve (MV) leaflets from parasternal long axis view (PLAX) (normal range [N R]: 42-59 mm males and 39-53 mm females); • b. Left ventricle end systolic diameter (ESD): measured with M-mode echocardiography at the level of mitral valve (MV) leaflets from PLAX (N R: 25-35 mm): • c. Left ventricle end diastolic volume (EDV): measured with M-mode echocardiography at the level of mitral valve (MV) leaflets from PLAX (N R: 67-155 mL males and 56-104 mL females); • d. Left ventricle end systolic volume (ESV): measured with M-mode echocardiography at the level of mitral valve (MV) leaflets from PLAX (N R: 22-58 mL males and 19-49 mL females); • e. Left atrium diameter (LAD): measured at end-ventricular systole with M-mode echocardiography from PLAX. (N R: 30-40 mm males and 27-38 mm females) • f. Left atrium area (LAA): measured from apical four chamber view (NR: £20 cm2); and • g. Left atrium volume (LAV): derived from area-length measured from apical four chamber view (N R: 18-58 mL males and 22-52 mL females). • 2. Left ventricle diastolic function parameters: • a. E wave: measured from mitral valve pulsed wave Doppler, is the peak velocity of early filling. […] A wave: measured from mitral valve pulsed wave Doppler is the peak velocity of late atrial filling. Not evaluable in subjects with AF: • c. E wave deceleration time (EDT): measured from mitral valve pulsed wave Doppler represent the slope of the descending part of E wave; • d. E/A ratio: determines the type of diastolic filling pattern (normal E/A=1-2 and EDT=150-200 ms, abnormal relaxation E/A<1 and EDT>240 ms, pseudonormal E/A=0.8-1.5: restrictive E/A^32 and EDT <160 ms). Not evaluable in subjects with AF; • e. Ea: measured with tissue Doppler method at the lateral and septal side of the mitral annulus from apical four chamber view is the early diastolic velocity. The value has been calculated as the average between Ea lateral and Ea septal. (NR310 cm/s) (see Nagueh S F et al. Eur J Echocardiogr. 2009:10(2):165-93); • f. Aa: measured with tissue Doppler method at the lateral and septal side of the mitral annulus from apical four chamber view is the late atrial diastolic velocity. The value has been calculated as the average between Aa lateral and Aa septal. Not evaluable in subjects with AF; and • g. E/Ea ratio: this is a derived measure from E and Ea value. This is highly correlated with left ventricle filling pressure and with prognosis in subjects with HF. (NR: <13) (see Nagueh S F et al. supra). • 3. Left ventricle systolic function parameters: • a. Left ventricle ejection fraction (LVEF): measured with Simpson biplane method according to international recommendations from apical four chamber view and apical two chamber view. (NR ^355%) (see Lang R M et al. J Am Soc Echocardiogr. 2005:18(12): 1440-63); and • b. Sa: measured with tissue Doppler method at the lateral and septal side of the mitral annulus from apical four chamber view. The value has been calculated as the average between Sa lateral and Sa septal. […] Overall cardiac contraction parameters: • a. Stroke volume (SV): is a derived measure obtained with the application of Bernoulli's formula using the dimension of left ventricle outflow tract (LVOT) as diameter and LVOT time velocity integral as velocity. (NR>60 mL/beat); • b. Cardiac output (CO): is derived by the multiplication of SV× heart rate (HR) (NR: >4 L/min); • c. […]

[1] = 1.0 μg/kg/min, mean ± standard deviation

## C[C@]12CCC(=NOCCN)C[C@@H]1C(=O)C[C@@H]1[C@@H]2CC[C@]2(C)C(=O)CC[C@@H]12 [Istaroxime, (E,Z)-3-((2-aminoethoxy)imino)androstane-6,17-dione hydrochloride]
6 hours
  A wave mean change from baseline: 5.88 cm/s
  CI mean change from baseline: 0.15 l/min/m^2
  E wave mean change from baseline: -10.19 cm/s
  E/A ratio mean change from baseline: −0.35
  E/e′ ratio mean change from baseline: −2.05
  EDV Index mean change from baseline: 0.64 ml/m^2
  EDV mean change from baseline: 1.35 mL
  ESV Index mean change from baseline: −2.42 ml/m^2
  ESV mean change from baseline: -4.62 mL
  IVC diameter mean change from baseline: −1.24 mm
  LAA mean change from baseline: −1.03 cm^2
  LAV mean change from baseline: -4.94 mL
  LAVI mean change from baseline: −2.86 mL/m^2
  LVEF mean change from baseline: 2.35%
  PASP mean change from baseline: −2.60 mmHg
  SVI mean change from baseline: 4.32 ml/beat/m^2
  S′ mean change from baseline: 1.00 cm/s
  TAPSE mean change from baseline: 1.56 mm
  e′ mean change from baseline: -0.03 cm/s
24 hours
  A wave mean change from baseline: 9.00 cm/s
  CI mean change from baseline: 0.15 l/min/m^2
  E wave mean change from baseline: -14.06 cm/s
  E/A ratio mean change from baseline: −0.65
  E/e′ ratio mean change from baseline: −3.16
  EDV Index mean change from baseline: −2.08 ml/m^2
  EDV mean change from baseline: -3.67 mL
  ESV Index mean change from baseline: −6.23 ml/m^2
  ESV mean change from baseline: -11.39 mL
  IVC diameter mean change from baseline: −2.23 mm
  LAA mean change from baseline: −2.21 cm^2
  LAV mean change from baseline: -12.94 mL
  LAVI mean change from baseline: −7.32 mL/m^2
  LVEF mean change from baseline: 3.82%
  PASP mean change from baseline: −4.76 mmHg
  SVI mean change from baseline: 5.49 ml/beat/m^2
  S′ mean change from baseline: 0.81 cm/s
  TAPSE mean change from baseline: 1.16 mm
  e′ mean change from baseline: 0.10 cm/s
48 hours
  A wave mean change from baseline: 5.30 cm/s
  CI mean change from baseline: 0.20 l/min/m^2
  E wave mean change from baseline: -11.53 cm/s
  E/A ratio mean change from baseline: −0.36
  E/e′ ratio mean change from baseline: −2.21
  EDV Index mean change from baseline: −1.86 ml/m^2
  EDV mean change from baseline: -3.18 mL
  ESV Index mean change from baseline: −4.46 ml/m^2
  ESV mean change from baseline: -8.09 mL
  IVC diameter mean change from baseline: −2.19 mm
  LAA mean change from baseline: −0.94 cm^2
  LAV mean change from baseline: -6.67 mL
  LAVI mean change from baseline: −3.80 mL/m^2
  LVEF mean change from baseline: 2.06%
  PASP mean change from baseline: −3.00 mmHg
  SVI mean change from baseline: 2.91 ml/beat/m^2
  S′ mean change from baseline: 0.26 cm/s
  TAPSE mean change from baseline: 0.31 mm
  e′ mean change from baseline: 0.19 cm/s
Mean ± standard deviation
  E/e′ change from baseline to 24 h (primary endpoint): −3.16 ± 2.59
Mean ± standard deviation, listed as istaroxime
  E/e′ change from baseline to 24 h (primary endpoint): −3.16±2.59
[1]
  E/A ratio change at 24 h: −0.65 ± 1.10
  LV ejection fraction change at 24 h: 3.82 ± 4.14%
  LV end-diastolic volume index change at 24 h: −2.08 ± 9.05 mL/m^2
  LV end-systolic volume index change at 24 h: −6.23 ± 9.23 mL/m^2
  Left atrial area change at 24 h: −2.21 ± 3.18 cm^2
  Left atrial volume index change at 24 h: −7.32 ± 10.0 mL/m^2
  Stroke volume index change at 24 h: 5.49 ± 4.98 mL/beat/m^2
  S′ change at 24 h: 0.81 ± 1.01 cm/s
per-protocol population
  E/e′ change from baseline to 24 h: −3.19±2.63

From patent publication US12697343B2, “Intravenous istaroxime for the treatment of acute heart failure” (Seismic Pharmaceuticals Operations LLC, priority 2021, dated 2026)
